Measured values taken from patent US20260242419A1, “A CYCLIC PEPTIDE FOR TRAPPING INTERLEUKIN-1 BETA” (Merck Sharp & Dohme LLC, priority 2023, published 2026).
Like-named read-outs stand apart in the source and are kept apart here. Starred links: 1 amine or outer side, 2 acyl side, 3 side chain; linkers in the order of their positions; H or OH if unused. Non-standard residues stand in square brackets, D forms with d. Residues, ends and D or L forms follow the SMILES beside them. dPro(4R-(4-pyridylmethyl)) = O=C(O)[C@H]1C[C@@H](Cc2ccncc2)CN1; Ala(piperidin-4-yl) = O=C([C@H](CC1CCN([*:3])CC1)N[*:1])[*:2]; Trp(βS-Me,4-F) = C[C@@H](c1c[nH]c2cccc(F)c12)[C@H](N)C(=O)O; Bip(4'-COOH) = N[C@@H](Cc1ccc(-c2ccc(C(=O)O)cc2)cc1)C(=O)O; Ala(1-bicyclo(1.1.1)pentyl) = N[C@@H](CC12CC(C1)C2)C(=O)O; dPro(4R-Bzl(4-F)) = O=C(O)[C@H]1C[C@@H](Cc2ccc(F)cc2)CN1; X41 = O=C([C@@H](N[*:1])[C@@H](O)c1ccncc1)[*:2]; Phe(4-COOH) = N[C@@H](Cc1ccc(C(=O)O)cc1)C(=O)O; Pro(cis-4-F) = O=C(O)[C@@H]1C[C@H](F)CN1; X45 = Cc1cc(C[C@H](N[*:1])C(=O)[*:2])no1; AEF = NCCOc1ccc(C[C@H](N)C(=O)O)cc1; d(αMeD) = C[C@@](N)(CC(=O)O)C(=O)O; 4Pal = N[C@@H](Cc1ccncc1)C(=O)O; d(αMeS) = C[C@@](N)(CO)C(=O)O; Dab = NCC[C@H](N)C(=O)O; Aib = CC(C)(N)C(=O)O

Biological target: T1, IL-1β (Homo sapiens, UniProt P01584)
T1 construct: purchased BioLegend 579404
T1 sequence (P01584 117-269): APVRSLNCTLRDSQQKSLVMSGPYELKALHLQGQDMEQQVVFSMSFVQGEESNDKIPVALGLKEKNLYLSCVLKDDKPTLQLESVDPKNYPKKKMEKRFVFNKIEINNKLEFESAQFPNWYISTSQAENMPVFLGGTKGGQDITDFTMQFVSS
Test: IL-6 assay in MRC5 cells: inhibition of IL-1β induced IL-6 secretion (AlphaLISA)
Type: cell-based
Details: inhibition of IL-1β induced IL-6 secretion in MRC5 cells, read-out: MRC5 IC50
Summary of the method: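 Compound was pre-incubated 1 h at ambient temperature with recombinant human IL-1β at 2λ EC80 before adding human lung fibroblast MRC5 cells (3000/well) in EMEM with 0.025% BSA. After overnight culture at 37 °C, 5% CO2, secreted IL-6 in conditioned medium was measured by AlphaLISA; IC50 from 4-parameter logistic fits.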

Compound	IC50	IC50 (compound pre-incubated 1 hour with recombinant human IL-1β)
CC(=O)NCCOc1ccc(C[C@@H]2NC(=O)[C@H]3C[C@@H](Cc4ccncc4)CN3C(=O)CNC(=O)[C@H](CCN)NC(=O)[C@H](CCC(N)=O)NC(=O)[C@H](Cc3cc(C)on3)NC(=O)C(C)(C)NC(=O)[C@H](Cc3c[nH]c4ccccc34)NC(=O)[C@H](CCC(=O)O)NC(=O)C(C)(C)NC(=O)[C@H]([C@@H](C)c3c[nH]c4cccc(F)c34)NC(=O)[C@@H]3C[C@H](F)CN3C(=O)CNC(=O)[C@H](Cc3ccc(C(=O)O)cc3)NC(=O)[C@H](Cc3ccncc3)NC2=O)cc1 [Example 315] (cyclo([AEF](Ac)[4Pal][Phe(4-COOH)]G[Pro(cis-4-F)][Trp(βS-Me,4-F)][Aib]EW[Aib][X45]Q[Dab]G[dPro(4R-(4-pyridylmethyl))]))	0.018 nM	–
C[C@@H](c1c[nH]c2cccc(F)c12)[C@@H]1NC(=O)[C@@H]2C[C@H](F)CN2C(=O)CNC(=O)[C@H](Cc2ccc(C(=O)O)cc2)NC(=O)[C@H](Cc2ccncc2)NC(=O)[C@H](Cc2ccc(-c3ccc(C(=O)O)cc3)cc2)NC(=O)[C@H]2C[C@@H](Cc3ccc(F)cc3)CN2C(=O)CNC(=O)[C@H](CCN)NC(=O)[C@H](CCC(N)=O)NC(=O)[C@H]([C@@H](O)c2ccncc2)NC(=O)C(C)(C)NC(=O)[C@H](Cc2c[nH]c3ccccc23)NC(=O)[C@H](CO)NC(=O)C(C)(C)NC1=O [Example 272] (cyclo([Bip(4'-COOH)][4Pal][Phe(4-COOH)]G[Pro(cis-4-F)][Trp(βS-Me,4-F)][Aib]SW[Aib][X41]Q[Dab]G[dPro(4R-Bzl(4-F))]))	–	0.018 nM
CC(C)C[C@@H]1NC(=O)[C@@](C)(CO)NC(=O)[C@H](Cc2c[nH]c3ccccc23)NC(=O)[C@H](CO)NC(=O)C(C)(C)NC(=O)[C@H]([C@@H](C)c2c[nH]c3cccc(F)c23)NC(=O)[C@@H]2C[C@H](F)CN2C(=O)CNC(=O)[C@H](Cc2ccc(C(=O)O)cc2)NC(=O)[C@H](Cc2ccncc2)NC(=O)[C@H](Cc2ccc(-c3ccc(C(=O)O)cc3)cc2)NC(=O)[C@H]2C[C@@H](Cc3ccncc3)CN2C(=O)CNC(=O)[C@H](CCN)NC(=O)[C@H](CCC(N)=O)NC1=O [Example 347] (cyclo([Bip(4'-COOH)][4Pal][Phe(4-COOH)]G[Pro(cis-4-F)][Trp(βS-Me,4-F)][Aib]SW[d(αMeS)]LQ[Dab]G[dPro(4R-(4-pyridylmethyl))]))	0.025 nM	–
CC(C)C[C@@H]1NC(=O)[C@@](C)(CC(=O)O)NC(=O)[C@H](Cc2c[nH]c3ccccc23)NC(=O)[C@H](CO)NC(=O)C(C)(C)NC(=O)[C@H]([C@@H](C)c2c[nH]c3cccc(F)c23)NC(=O)[C@@H]2C[C@H](F)CN2C(=O)CNC(=O)[C@H](Cc2ccc(C(=O)O)cc2)NC(=O)[C@H](CC23CC(C2)C3)NC(=O)[C@H](Cc2ccc(-c3ccc(C(=O)O)cc3)cc2)NC(=O)[C@H]2C[C@@H](Cc3ccncc3)CN2C(=O)CNC(=O)[C@H](CCN)NC(=O)[C@H](CCC(N)=O)NC1=O [Example 349] (cyclo([Bip(4'-COOH)][Ala(1-bicyclo(1.1.1)pentyl)][Phe(4-COOH)]G[Pro(cis-4-F)][Trp(βS-Me,4-F)][Aib]SW[d(αMeD)]LQ[Dab]G[dPro(4R-(4-pyridylmethyl))]))	0.017 nM	–
C[C@@H](c1c[nH]c2cccc(F)c12)[C@@H]1NC(=O)[C@@H]2C[C@H](F)CN2C(=O)CNC(=O)[C@H](Cc2ccc(C(=O)O)cc2)NC(=O)[C@H](CC23CC(C2)C3)NC(=O)[C@H](Cc2ccc(-c3ccc(C(=O)O)cc3)cc2)NC(=O)[C@H]2C[C@@H](Cc3ccc(F)cc3)CN2C(=O)CNC(=O)[C@H](CCN)NC(=O)[C@H](CCC(N)=O)NC(=O)[C@H](CC2CCNCC2)NC(=O)C(C)(C)NC(=O)[C@H](Cc2c[nH]c3ccccc23)NC(=O)[C@H](CO)NC(=O)C(C)(C)NC1=O [Example 169] (cyclo([Bip(4'-COOH)][Ala(1-bicyclo(1.1.1)pentyl)][Phe(4-COOH)]G[Pro(cis-4-F)][Trp(βS-Me,4-F)][Aib]SW[Aib][Ala(piperidin-4-yl)]Q[Dab]G[dPro(4R-Bzl(4-F))]))	0.019 nM	–
C[C@@H](c1c[nH]c2cccc(F)c12)[C@@H]1NC(=O)[C@@H]2C[C@H](F)CN2C(=O)CNC(=O)[C@H](Cc2ccc(C(=O)O)cc2)NC(=O)[C@H](Cc2ccncc2)NC(=O)[C@H](Cc2ccc(-c3ccc(C(=O)O)cc3)cc2)NC(=O)[C@H]2C[C@@H](Cc3ccc(F)cc3)CN2C(=O)CNC(=O)[C@H](CCN)NC(=O)[C@H](CCC(N)=O)NC(=O)[C@H](CC2CCNCC2)NC(=O)C(C)(C)NC(=O)[C@H](Cc2c[nH]c3ccccc23)NC(=O)[C@H](CCC(=O)O)NC(=O)C(C)(C)NC1=O [Example 119] (cyclo([Bip(4'-COOH)][4Pal][Phe(4-COOH)]G[Pro(cis-4-F)][Trp(βS-Me,4-F)][Aib]EW[Aib][Ala(piperidin-4-yl)]Q[Dab]G[dPro(4R-Bzl(4-F))]))	0.016 nM	–
